Measurements taken from PubChem BioAssay (NCI).
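Method: 48-hour compound exposure of cells in 96-well plates, five concentrations, linear interpolation of endpoints. Here, GI50 denotes the concentration required for 50% inhibition of growth. TGI: total growth inhibition.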

Key:
Experiment in all cases: NCI tumour cell line growth inhibition, 48 h
HT29 colon = system: HT29 colon
SNB-19 CNS = system: SNB-19 CNS
MDA-MB-231 breast = system: MDA-MB-231 breast
786-0 renal = system: 786-0 renal
NCI-H460 lung = system: NCI-H460 lung
MALME-3M melanoma = system: MALME-3M melanoma
T-47D breast = system: T-47D breast
NCI/ADR-RES ovarian = system: NCI/ADR-RES ovarian
HL-60(TB) leukemia = system: HL-60(TB) leukemia
SK-MEL-28 melanoma = system: SK-MEL-28 melanoma
SR leukemia = system: SR leukemia
M14 melanoma = system: M14 melanoma
DU-145 prostate = system: DU-145 prostate
CAKI-1 renal = system: CAKI-1 renal
BT-549 breast = system: BT-549 breast
NCI-H226 lung = system: NCI-H226 lung
MOLT-4 leukemia = system: MOLT-4 leukemia
HOP-92 NSCLC = system: HOP-92 NSCLC
SNB-75 CNS = system: SNB-75 CNS
NCI-H23 lung = system: NCI-H23 lung
ACHN renal = system: ACHN renal
HCT-116 colon = system: HCT-116 colon
MDA-MB-435 = system: MDA-MB-435
SF-268 CNS = system: SF-268 CNS
SK-OV-3 ovarian = system: SK-OV-3 ovarian
K-562 leukemia = system: K-562 leukemia
U251 CNS = system: U251 CNS
A549 NSCLC = system: A549 NSCLC
HOP-62 NSCLC = system: HOP-62 NSCLC
OVCAR-8 ovarian = system: OVCAR-8 ovarian
CCRF-CEM leukemia = system: CCRF-CEM leukemia
SF-295 CNS = system: SF-295 CNS
OVCAR-4 ovarian = system: OVCAR-4 ovarian
SF-539 CNS = system: SF-539 CNS
SN12C renal = system: SN12C renal
A498 renal = system: A498 renal
HCC-2998 colon = system: HCC-2998 colon
KM12 colon = system: KM12 colon
HS 578T breast = system: HS 578T breast
TK-10 renal = system: TK-10 renal
UACC-257 melanoma = system: UACC-257 melanoma
COLO 205 colon = system: COLO 205 colon
SK-MEL-5 melanoma = system: SK-MEL-5 melanoma
OVCAR-5 ovarian = system: OVCAR-5 ovarian
HCT-15 colon = system: HCT-15 colon
SW-620 colon = system: SW-620 colon
RPMI-8226 leukemia = system: RPMI-8226 leukemia
PC-3 prostate = system: PC-3 prostate
EKVX NSCLC = system: EKVX NSCLC
RXF 393 renal = system: RXF 393 renal
OVCAR-3 ovarian = system: OVCAR-3 ovarian
LOX IMVI melanoma = system: LOX IMVI melanoma
MCF7 breast = system: MCF7 breast
UACC-62 melanoma = system: UACC-62 melanoma

Q: With `O=C(Nc1cc(Cl)ccc1O)c1ccccc1Nc1ccnc(C(F)(F)F)c1` as the molecule, how does the GI50 (HT29 colon) read?
A: The GI50 was 3.27 µM.

Q: And the TGI (HT29 colon)?
A: Its TGI is 11.5 µM.

Q: What about the GI50 (SNB-19 CNS) of the same molecule?
A: Its GI50 is 2.88 µM.

Q: What about the TGI (SNB-19 CNS) of the same molecule?
A: Its TGI is 10.3 µM.

Q: What about the GI50 (MDA-MB-231 breast) of the same molecule?
A: The GI50 was 2.12 µM.

Q: And the TGI (MDA-MB-231 breast)?
A: The TGI was 5.19 µM.

Q: What about the GI50 (786-0 renal) of the same molecule?
A: The GI50 was 3.28 µM.

Q: What about the TGI (786-0 renal) of the same molecule?
A: Its TGI is 8.8 µM.

Q: What about the GI50 (NCI-H460 lung) of the same molecule?
A: Its GI50 is 2.99 µM.

Q: And the TGI (NCI-H460 lung)?
A: The TGI was 9.92 µM.

Q: And the GI50 (MALME-3M melanoma)?
A: The GI50 was 2.2 µM.

Q: What about the TGI (MALME-3M melanoma) of the same molecule?
A: Its TGI is 7.39 µM.

Q: And the GI50 (T-47D breast)?
A: The GI50 was 2.47 µM.

Q: What about the TGI (T-47D breast) of the same molecule?
A: The TGI was 8.5 µM.

Q: What about the GI50 (NCI/ADR-RES ovarian) of the same molecule?
A: The GI50 was 3.06 µM.

Q: And the TGI (NCI/ADR-RES ovarian)?
A: Its TGI is 9.29 µM.

Q: And the GI50 (HL-60(TB) leukemia)?
A: Its GI50 is 1.46 µM.

Q: What about the TGI (HL-60(TB) leukemia) of the same molecule?
A: The TGI was 4.36 µM.

Q: What about the GI50 (SK-MEL-28 melanoma) of the same molecule?
A: Its GI50 is 3 µM.

Q: What about the TGI (SK-MEL-28 melanoma) of the same molecule?
A: The TGI was 12.2 µM.

Q: What about the GI50 (SR leukemia) of the same molecule?
A: The GI50 was 2.83 µM.

Q: What about the TGI (SR leukemia) of the same molecule?
A: Its TGI is 11.6 µM.

Q: What about the GI50 (M14 melanoma) of the same molecule?
A: The GI50 was 2.62 µM.

Q: What about the TGI (M14 melanoma) of the same molecule?
A: The TGI was 8.71 µM.

Q: What about the GI50 (DU-145 prostate) of the same molecule?
A: Its GI50 is 3.69 µM.

Q: And the TGI (DU-145 prostate)?
A: The TGI was 14.1 µM.

Q: What about the GI50 (CAKI-1 renal) of the same molecule?
A: The GI50 was 2.24 µM.

Q: What about the TGI (CAKI-1 renal) of the same molecule?
A: The TGI was 7.34 µM.

Q: And the GI50 (BT-549 breast)?
A: Its GI50 is 2.46 µM.

Q: And the TGI (BT-549 breast)?
A: Its TGI is 7.95 µM.

Q: And the GI50 (NCI-H226 lung)?
A: The GI50 was 2.11 µM.

Q: What about the TGI (NCI-H226 lung) of the same molecule?
A: Its TGI is 9.17 µM.

Q: What about the GI50 (MOLT-4 leukemia) of the same molecule?
A: Its GI50 is 2.52 µM.

Q: What about the TGI (MOLT-4 leukemia) of the same molecule?
A: The TGI was 6.94 µM.

Q: And the GI50 (HOP-92 NSCLC)?
A: The GI50 was 2.58 µM.

Q: What about the TGI (HOP-92 NSCLC) of the same molecule?
A: The TGI was 8.72 µM.

Q: What about the GI50 (SNB-75 CNS) of the same molecule?
A: Its GI50 is 2.17 µM.

Q: And the TGI (SNB-75 CNS)?
A: Its TGI is 6.55 µM.

Q: What about the GI50 (NCI-H23 lung) of the same molecule?
A: Its GI50 is 2.63 µM.

Q: And the TGI (NCI-H23 lung)?
A: Its TGI is 9.19 µM.

Q: What about the GI50 (ACHN renal) of the same molecule?
A: Its GI50 is 3.35 µM.

Q: What about the TGI (ACHN renal) of the same molecule?
A: The TGI was > 100 µM.

Q: And the GI50 (HCT-116 colon)?
A: Its GI50 is 2.2 µM.

Q: And the TGI (HCT-116 colon)?
A: Its TGI is 5.63 µM.

Q: What about the GI50 (MDA-MB-435) of the same molecule?
A: Its GI50 is 3.33 µM.

Q: What about the TGI (MDA-MB-435) of the same molecule?
A: Its TGI is 11.3 µM.

Q: And the GI50 (SF-268 CNS)?
A: Its GI50 is 3.13 µM.

Q: And the TGI (SF-268 CNS)?
A: The TGI was 13.2 µM.

Q: What about the GI50 (SK-OV-3 ovarian) of the same molecule?
A: Its GI50 is 2.21 µM.

Q: What about the TGI (SK-OV-3 ovarian) of the same molecule?
A: Its TGI is 6.23 µM.

Q: What about the GI50 (K-562 leukemia) of the same molecule?
A: The GI50 was 3.65 µM.

Q: What about the TGI (K-562 leukemia) of the same molecule?
A: Its TGI is > 100 µM.

Q: And the GI50 (U251 CNS)?
A: The GI50 was 4.91 µM.

Q: What about the TGI (U251 CNS) of the same molecule?
A: Its TGI is > 100 µM.

Q: What about the GI50 (A549 NSCLC) of the same molecule?
A: The GI50 was 3.38 µM.

Q: And the TGI (A549 NSCLC)?
A: The TGI was 13.1 µM.

Q: What about the GI50 (HOP-62 NSCLC) of the same molecule?
A: The GI50 was 2.16 µM.

Q: And the TGI (HOP-62 NSCLC)?
A: Its TGI is 5.21 µM.

Q: And the GI50 (OVCAR-8 ovarian)?
A: The GI50 was 3.43 µM.

Q: What about the TGI (OVCAR-8 ovarian) of the same molecule?
A: The TGI was 16.3 µM.

Q: And the GI50 (CCRF-CEM leukemia)?
A: Its GI50 is 3.12 µM.

Q: What about the TGI (CCRF-CEM leukemia) of the same molecule?
A: The TGI was 9.63 µM.

Q: And the GI50 (SF-295 CNS)?
A: Its GI50 is 2.5 µM.

Q: And the TGI (SF-295 CNS)?
A: The TGI was 6.78 µM.

Q: What about the GI50 (OVCAR-4 ovarian) of the same molecule?
A: The GI50 was 2.29 µM.

Q: And the TGI (OVCAR-4 ovarian)?
A: The TGI was 13.2 µM.

Q: And the GI50 (SF-539 CNS)?
A: Its GI50 is 2.7 µM.

Q: What about the TGI (SF-539 CNS) of the same molecule?
A: The TGI was 9.16 µM.

Q: And the GI50 (SN12C renal)?
A: The GI50 was 2.84 µM.

Q: What about the TGI (SN12C renal) of the same molecule?
A: Its TGI is 10.7 µM.

Q: What about the GI50 (A498 renal) of the same molecule?
A: The GI50 was 2.25 µM.

Q: And the TGI (A498 renal)?
A: Its TGI is 6.4 µM.

Q: What about the GI50 (HCC-2998 colon) of the same molecule?
A: The GI50 was 3 µM.

Q: What about the TGI (HCC-2998 colon) of the same molecule?
A: Its TGI is 7.41 µM.

Q: And the GI50 (KM12 colon)?
A: Its GI50 is 2.74 µM.

Q: What about the TGI (KM12 colon) of the same molecule?
A: Its TGI is 8.13 µM.

Q: And the GI50 (HS 578T breast)?
A: The GI50 was 2.42 µM.

Q: What about the TGI (HS 578T breast) of the same molecule?
A: The TGI was 8.54 µM.

Q: What about the GI50 (TK-10 renal) of the same molecule?
A: The GI50 was 4.72 µM.

Q: And the TGI (TK-10 renal)?
A: Its TGI is 16.8 µM.

Q: And the GI50 (UACC-257 melanoma)?
A: Its GI50 is 2.85 µM.

Q: And the TGI (UACC-257 melanoma)?
A: The TGI was 8.5 µM.

Q: What about the GI50 (COLO 205 colon) of the same molecule?
A: Its GI50 is 2.38 µM.

Q: What about the TGI (COLO 205 colon) of the same molecule?
A: Its TGI is 5.4 µM.

Q: And the GI50 (SK-MEL-5 melanoma)?
A: Its GI50 is 2.1 µM.

Q: And the TGI (SK-MEL-5 melanoma)?
A: The TGI was 4.27 µM.

Q: And the GI50 (OVCAR-5 ovarian)?
A: Its GI50 is 5.6 µM.

Q: And the TGI (OVCAR-5 ovarian)?
A: The TGI was 23.3 µM.

Q: What about the GI50 (HCT-15 colon) of the same molecule?
A: The GI50 was 3.55 µM.

Q: And the TGI (HCT-15 colon)?
A: The TGI was > 100 µM.

Q: And the GI50 (SW-620 colon)?
A: Its GI50 is 3.15 µM.

Q: What about the TGI (SW-620 colon) of the same molecule?
A: The TGI was 11.7 µM.

Q: What about the GI50 (RPMI-8226 leukemia) of the same molecule?
A: Its GI50 is 1.94 µM.

Q: And the TGI (RPMI-8226 leukemia)?
A: The TGI was 7.43 µM.

Q: What about the GI50 (PC-3 prostate) of the same molecule?
A: Its GI50 is 2.84 µM.

Q: And the TGI (PC-3 prostate)?
A: The TGI was > 100 µM.

Q: And the GI50 (EKVX NSCLC)?
A: Its GI50 is 2.92 µM.

Q: And the TGI (EKVX NSCLC)?
A: The TGI was 10.4 µM.

Q: What about the GI50 (RXF 393 renal) of the same molecule?
A: Its GI50 is 2.77 µM.

Q: And the TGI (RXF 393 renal)?
A: Its TGI is 10.6 µM.

Q: And the GI50 (OVCAR-3 ovarian)?
A: The GI50 was 1.7 µM.

Q: What about the TGI (OVCAR-3 ovarian) of the same molecule?
A: Its TGI is 4.8 µM.

Q: And the GI50 (LOX IMVI melanoma)?
A: Its GI50 is 3.2 µM.

Q: What about the TGI (LOX IMVI melanoma) of the same molecule?
A: Its TGI is 22.7 µM.

Q: What about the GI50 (MCF7 breast) of the same molecule?
A: Its GI50 is 2.75 µM.

Q: And the TGI (MCF7 breast)?
A: Its TGI is 11.6 µM.

Q: And the GI50 (UACC-62 melanoma)?
A: The GI50 was 2.51 µM.

Q: What about the TGI (UACC-62 melanoma) of the same molecule?
A: The TGI was 10 µM.
